Measurements reported in patent publication US9073830B2 (Hyundai Pharm Co., Ltd., priority 2011, dated 2015).

Assays:
human 11β-HSD1 = target: T1, human 11β-HSD1 (Homo sapiens, UniProt P28845); test: Enzyme activity analysis on human 11β-HSD1 (HTRF cortisol, liver microsomes); assay type: biochemical; details: first value of cell
T1 construct: 100 ug/ml human/mouse liver microsomes; from tissue; host or cells: human liver microsomes
Procedure: (§1) After culturing at 37° C. for 2 hours, 5 μl of cryptate-labeled anti-cortisol antibody and 5 μl of d2-labeled cortisol were added thereto. After further culturing at room temperature for 2 hours, a homogeneous time-resolved fluorescence (HTRF, Cisbio) signal was measured. From each analysis, based on a standard curve calculated using cortisols of several known concentrations, an amount of produced cortisol was tested.
(§2) While an amount of cortisol, produced without the compound, was used as a control, an inhibition percentage by the test compound, at each concentration, was calculated. By using an inhibition curve calculated by coordinates of inhibition percentage to test compound concentration, an IC50 value of the compound on 11β-HSD1 was obtained.

mouse 11β-HSD1 = target: T2, mouse 11β-HSD1 (Mus musculus, UniProt P50172); test: Enzyme activity analysis on mouse 11β-HSD1 (HTRF cortisol, liver microsomes); assay type: biochemical; details: second value of cell
T2 construct: 100 ug/ml human/mouse liver microsomes; from tissue; host or cells: mouse liver microsomes
Procedure: as §1, §2

T2 sequence (P50172 whole entry): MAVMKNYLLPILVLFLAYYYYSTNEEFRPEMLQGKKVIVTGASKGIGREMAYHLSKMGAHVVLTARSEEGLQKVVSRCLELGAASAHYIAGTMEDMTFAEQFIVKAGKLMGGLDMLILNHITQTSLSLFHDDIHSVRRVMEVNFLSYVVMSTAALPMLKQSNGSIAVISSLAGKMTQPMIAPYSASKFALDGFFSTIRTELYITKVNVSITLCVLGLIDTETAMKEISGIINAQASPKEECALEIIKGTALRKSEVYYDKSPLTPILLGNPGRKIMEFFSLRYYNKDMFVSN
T1 sequence (P28845 whole entry): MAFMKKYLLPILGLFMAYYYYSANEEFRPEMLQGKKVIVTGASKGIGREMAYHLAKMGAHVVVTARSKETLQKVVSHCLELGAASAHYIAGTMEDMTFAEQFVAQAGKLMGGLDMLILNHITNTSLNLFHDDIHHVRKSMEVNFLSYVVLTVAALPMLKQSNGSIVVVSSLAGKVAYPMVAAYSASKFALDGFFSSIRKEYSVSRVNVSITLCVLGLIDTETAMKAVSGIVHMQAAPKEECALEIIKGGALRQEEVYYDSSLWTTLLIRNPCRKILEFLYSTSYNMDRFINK

Compound	IC50 (human 11β-HSD1) [µM]	IC50 (mouse 11β-HSD1) [µM]
CC(C)(NS(=O)(=O)c1c(F)cccc1F)C(=O)NC1C2CC3CC1CC(O)(C3)C2 (stereo not shown) [compound 74, N-(5-hydroxyadamantane-2-yl)-2-methyl-2-(2,6-difluorophenylsulfonamido)propanamide]	0.079	0.305
CC(C)(NS(=O)(=O)c1cccc2cccnc12)C(=O)NC1C2CC3CC1CC(O)(C3)C2 (stereo not shown) [compound 75, N-(5-hydroxyadamantane-2-yl)-2-methyl-2-(8-quinolinesulfonamido)propanamide]	0.006	0.005
Cc1ccc([N+](=O)[O-])cc1S(=O)(=O)NC(C)(C)C(=O)NC1C2CC3CC1CC(O)(C3)C2 (stereo not shown) [compound 76, N-(5-hydroxyadamantane-2-yl)-2-methyl-2-(2-methyl-5-nitrophenylsulfonamido)propanamide]	0.146	2.08
CC(C)(NS(=O)(=O)c1cccc([N+](=O)[O-])c1)C(=O)NC1C2CC3CC1CC(O)(C3)C2 (stereo not shown) [compound 77, N-(5-hydroxyadamantane-2-yl)-2-methyl-2-(3-nitrophenylsulfonamido)propanamide]	0.492	0.575
CC(C)(NS(=O)(=O)c1ccc([N+](=O)[O-])cc1)C(=O)NC1C2CC3CC1CC(O)(C3)C2 (stereo not shown) [compound 78, N-(5-hydroxyadamantane-2-yl)-2-methyl-2-(4-nitrophenylsulfonamido)propanamide]	0.692	1.21
CC(C)(NS(=O)(=O)c1ccc(Cl)cc1[N+](=O)[O-])C(=O)NC1C2CC3CC1CC(O)(C3)C2 (stereo not shown) [compound 79, N-(5-hydroxyadamantane-2-yl)-2-methyl-2-(4-chloro-2-nitrophenylsulfonamido)propanamide]	0.083	0.797
CC(C)(NS(=O)(=O)c1ccc(F)cc1Cl)C(=O)NC1C2CC3CC1CC(O)(C3)C2 (stereo not shown) [compound 80, N-(5-hydroxyadamantane-2-yl)-2-methyl-2-(4-fluoro-2-chlorophenylsulfonamido)propan amide]	0.072	0.213
CC(C)(NS(=O)(=O)c1ccc(Cl)cc1Cl)C(=O)NC1C2CC3CC1CC(O)(C3)C2 (stereo not shown) [compound 81, N-(5-hydroxyadamantane-2-yl)-2-methyl-2-(2,4-dichlorophenylsulfonamido)propanamide]	0.03	0.221
COc1ccc(S(=O)(=O)NC(C)(C)C(=O)NC2C3CC4CC2CC(C(N)=O)(C4)C3)cc1 (stereo not shown) [compound 86, N-4-(2-(4-methoxyphenylsulfonamido)-2-methylpropanamido)adamantane-1-carboxyamide]	> 2.5	> 2.5
CC(C)(NS(=O)(=O)c1ccc(Cl)cc1Cl)C(=O)NC1C2CC3CC1CC(C(N)=O)(C3)C2 (stereo not shown) [compound 88, N-4-(2-(2,4-dichlorophenylsulfonamido)-2-methylpropanamido)adamantane-1-carboxyamide]	0.014	0.056
Cc1cc(C)cc(S(=O)(=O)NC(C)(C)C(=O)NC2C3CC4CC2CC(C(N)=O)(C4)C3)c1 (stereo not shown) [compound 91, N-4-(2-(3,5-dimethylphenylsulfonamido)-2-methylpropanamido)adamantane-1-carboxyamide]	0.016	0.107
CC(C)(NS(=O)(=O)c1ccc(OC(F)F)cc1)C(=O)NC1C2CC3CC1CC(C(N)=O)(C3)C2 (stereo not shown) [compound 93, N-4-(2-(4-difluoromethoxyphenylsulfonamido)-2-methylpropanamido)adamantane-1-carboxyamide]	0.153	0.571
Cc1ccc(F)c(S(=O)(=O)NC(C)(C)C(=O)NC2C3CC4CC2CC(C(N)=O)(C4)C3)c1 (stereo not shown) [compound 94, N-4-(2-(2-fluoro-5-methylphenylsulfonamido)-2-methylpropanamido)adamantane-1-carboxyamide]	0.013	0.123
Cc1ccc(F)cc1S(=O)(=O)NC(C)(C)C(=O)NC1C2CC3CC1CC(C(N)=O)(C3)C2 (stereo not shown) [compound 95, N-4-(2-(2-methyl-5-fluorophenylsulfonamido)-2-methylpropanamido)adamantane-1-carboxyamide]	0.013	0.144
CC(C)(NS(=O)(=O)c1cccnc1Cl)C(=O)NC1C2CC3CC1CC(C(N)=O)(C3)C2 (stereo not shown) [compound 96, N-4-(2-(2-chloropyridine-3-sulfonamido)-2-methylpropanamido)adamantane-1-carboxyamide]	0.223	0.289
CC(C)(NS(=O)(=O)Cc1ccccc1Cl)C(=O)NC1C2CC3CC1CC(C(N)=O)(C3)C2 (stereo not shown) [compound 98, N-4-(2-((2-chlorophenyl)methylsulfonamido)-2-methylpropanamido)adamantane-1-carboxyamide]	> 2.5	> 2.5

Compound	IC50 (human 11β-HSD1) [µM]	IC50 (mouse 11β-HSD1) [µM]
CCCc1ccc(S(=O)(=O)NC(C)(C)C(=O)NC2C3CC4CC2CC(C(N)=O)(C4)C3)cc1 (stereo not shown) [compound 99, N-4-(2-(4-propylphenylsulfonamido)-2-methylpropanamido)adamantane-1-carboxyamide]	0.047	0.124
CC(C)(NS(=O)(=O)c1ccc(Br)cc1OC(F)(F)F)C(=O)NC1C2CC3CC1CC(C(N)=O)(C3)C2 (stereo not shown) [compound 100, N-4-(2-(2-trifluoromethoxy-4-bromophenylsulfonamido)-2-methylpropanamido)adamantane-1-carboxyamide]	0.018	0.21
CC(C)(NS(=O)(=O)c1ccc(F)cc1Br)C(=O)NC1C2CC3CC1CC(C(N)=O)(C3)C2 (stereo not shown) [compound 101, N-4-(2-(2-bromo-4-fluorophenylsulfonamido)-2-methylpropanamido)adamantane-1-carboxyamide]	0.009	0.014
CC(C)(NS(=O)(=O)c1cccc(Cl)c1F)C(=O)NC1C2CC3CC1CC(C(N)=O)(C3)C2 (stereo not shown) [compound 102, N-4-(2-(2-fluoro-3-chlorophenylsulfonamido)-2-methylpropanamido)adamantane-1-carboxyamide]	0.02	0.037
Cc1ccc(S(=O)(=O)NC(C)(C)C(=O)NC2C3CC4CC2CC(C(N)=O)(C4)C3)cc1Cl (stereo not shown) [compound 103, N-4-(2-(3-chloro-4-methylphenylsulfonamido)-2-methylpropanamido)adamantane-1-carboxyamide]	0.026	0.037
CC(C)(NS(=O)(=O)c1cccc([N+](=O)[O-])c1)C(=O)NC1C2CC3CC1CC(C(N)=O)(C3)C2 (stereo not shown) [compound 107, N-4-(2-(3-nitrophenylsulfonamido)-2-methylpropanamido)adamantane-1-carboxyamide]	0.178	0.563
CC(C)(NS(=O)(=O)c1cc(C(F)(F)F)ccc1C(F)(F)F)C(=O)NC1C2CC3CC1CC(C(N)=O)(C3)C2 (stereo not shown) [compound 109, N-4-(2-(2,5-bistrifluoromethylphenylsulfonamido)-2-methylpropanamido)adamantane-1-carboxyamide]	0.045	1.24
CC(C)(NS(=O)(=O)c1cc(C(F)(F)F)ccc1Br)C(=O)NC1C2CC3CC1CC(C(N)=O)(C3)C2 (stereo not shown) [compound 110, N-4-(2-(2-bromo-5-trifluoromethylphenylsulfonamido)-2-methylpropanamido)adamantane-1-carboxyamide]	0.014	0.556
COc1ccc(S(=O)(=O)NC(C)(C)C(=O)NC2C3CC4CC2CC(C(N)=O)(C4)C3)cc1[N+](=O)[O-] (stereo not shown) [compound 111, N-4-(2-(3-nitro-4-methoxyphenylsulfonamido)-2-methylpropanamido)adamantane-1-carboxyamide]	1.3	2.46
CC(C)(NS(=O)(=O)c1c(Cl)cc(Cl)cc1Cl)C(=O)NC1C2CC3CC1CC(C(N)=O)(C3)C2 (stereo not shown) [compound 112, N-4-(2-(2,4,6-trichlorophenylsulfonamido)-2-methylpropanamido)adamantane-1-carboxy amide]	0.024	0.011
CC(C)(NS(=O)(=O)c1ccc([N+](=O)[O-])c(C(F)(F)F)c1)C(=O)NC1C2CC3CC1CC(C(N)=O)(C3)C2 (stereo not shown) [compound 113, N-4-(2-(3-trifluoromethyl-4-nitrophenylsulfonamido)-2-methylpropanamido)adamantane-1-carboxyamide]	0.208	0.215
Cc1ccc(S(=O)(=O)NC(C)(C)C(=O)NC2C3CC4CC2CC(C(N)=O)(C4)C3)cc1[N+](=O)[O-] (stereo not shown) [compound 114, N-4-(2-(3-nitro-4-methylphenylsulfonamido)-2-methylpropanamido)adamantane-1-carboxyamide]	0.093	0.207
COc1ccc(S(=O)(=O)NC(C)(C)C(=O)NC2C3CC4CC2CC(C(N)=O)(C4)C3)cc1F (stereo not shown) [compound 115, N-4-(2-(3-fluoro-4-methoxyphenylsulfonamido)-2-methylpropanamido)adamantane-1-carboxyamide]	0.235	0.456
CC(C)(NS(=O)(=O)c1ccc(F)c(F)c1F)C(=O)NC1C2CC3CC1CC(C(N)=O)(C3)C2 (stereo not shown) [compound 116, N-4-(2-(2,3,4-trifluorophenylsulfonamido)-2-methylpropanamido)adamantane-1-carboxy amide]	0.035	0.122
CC(C)(NS(=O)(=O)c1cc(F)c(F)c(F)c1)C(=O)NC1C2CC3CC1CC(C(N)=O)(C3)C2 (stereo not shown) [compound 118, N-4-(2-(3,4,5-trifluorophenylsulfonamido)-2-methylpropanamido)adamantane-1-carboxy amide]	0.116	0.224
CC(C)(NS(=O)(=O)c1cc(F)ccc1F)C(=O)NC1C2CC3CC1CC(C(N)=O)(C3)C2 (stereo not shown) [compound 120]	0.051	0.453
